Measured values published in patent EP0267996A1, “New nucleotide derivatives” (TAMIR BIOTECHNOLOGY LTD., priority 1986, dated 1988).

Key:
Type in all cases: binding
Conditions in all cases: for Cross-reaction (%): RIA, 100x/y, masses of testosterone and heterologous compound giving 50% inhibition of binding of the tritiated ligand
[1] = system: monoclonal antibody to testosterone, clone F2 (rat spleen x mouse myeloma NSO/1 hybridoma; heavy chain class IgM); experiment: Dextran-coated charcoal radioimmunoassay (RIA): affinity and specificity of antibody in ascitic fluid
Description: (§1) Characterization of antibodies: A dextran-coated charcoal radioimmunoassay method was used to detect specific antibodies to testosterone. Antibody titer denotes the dilution at which 50% of the labelled ligand, added at concentrations of 50 pg./ml., is bound as determined by radioimmunoassay. Cross reactivity (%) was calculated as proposed by Thorneycroft et al ("Immunologic Methods", Steroid Determination, Peron and Caldwell, eds., Appleton-Century-Crofts, New York 1970, pp. 63-86). as 100x/y where x is the mass of testosterone and y is the mass of heterologous compound required to produce 50% inhibition of the binding of the tritiated ligand. Affinity of the antibodies was calculated according to Abraham et al in Handbook of Radioimmunoassay, Marcel Dekker Inc., New York, 1977, pp. 591-656.
(§2) After two weeks of growth, antibody-secreting hybridomas were detected by a RIA procedure in the tissue culture media of 30 out of the 147 cultures. During subsequent cell culture, 3 hybridoma lines that yielded high antibody titers were cloned by limiting dilutions and sub-cloned on semi-solid agar. When injected i.p. into pristane-trea ted irradiated F₁ mice or nude mice, the hybridomas grew as tumors and secreted high amounts of anti-testosterone antibodies into the ascitic fluid of these mice, with titers ranging from 1:10,000 to 1:60,000 (Table 1).
(§3) Characterization of monoclonal antibodies: The ascitic fluid of mice derived from three hybridomas. H₆, F₂ and D₁₁ was further characterized for affinity and specificity by a dextran-coated RIA procedure.

[2] = system: monoclonal antibody to testosterone, clone D11 (rat spleen x mouse myeloma NSO/1 hybridoma; heavy chain class Y2a); experiment: as above
Description: as §1, §2, §3

[3] = system: monoclonal antibody to testosterone, clone H6 (rat spleen x mouse myeloma NSO/1 hybridoma; heavy chain class Y2a); experiment: as above
Description: as §1, §2, §3

[4] = system: Polyclonal Rat IgG to testosterone (from the rats used for the fusion experiments); experiment: Dextran-coated charcoal radioimmunoassay (RIA): affinity and specificity of antibody
Description: Immunization: Wistar-derived female rats (2 to 3 months old) from the Departmental Colon y were immunized by an intradermal injection of testosterone-3-(O-carboxymethyl)-oxime bovine serum albumin conjugate (200 ug/rat) incorporated in complete Freund's adjuvant. A month later the injection was repeated, and booster injections (100 ug/rat) were given three weeks later. All animals were bled from the tail ten days after the booster injection, and the antisera were tested then for titer and specificity.
as §1

[5] = calculated according to the method of Abraham et al

C[C@]12CCC(=O)C[C@@H]1CC[C@@H]1[C@@H]2CC[C@]2(C)[C@@H](O)CC[C@@H]12 [5-alpha-Dihydrotestosterone]
Cross-reaction (%) [1]: 2%
Cross-reaction (%) [2]: 100%
Cross-reaction (%) [3]: 100%
Cross-reaction (%) [4]: 10%

C[C@]12CCC(=O)C[C@H]1CC[C@@H]1[C@@H]2CC[C@]2(C)[C@@H](O)CC[C@@H]12 [5-beta-Dihydrotestosterone]
Cross-reaction (%) [1]: 15%
Cross-reaction (%) [2]: 8.5%
Cross-reaction (%) [3]: 0.5%
Cross-reaction (%) [4]: 2%

C[C@]12CC[C@H]3[C@@H](CCC4=CC(=O)CC[C@@]43C)[C@@H]1CC[C@@H]2O [Testosterone]
Cross-reaction (%) [1]: 100%
Ka [1, 5]: 1e+10 L/mol
Cross-reaction (%) [2]: 100%
Ka [2, 5]: 1.85e+10 L/mol
Cross-reaction (%) [3]: 100%
Ka [3, 5]: 2.1e+10 L/mol
Cross-reaction (%) [4]: 100%
Ka [4, 5]: 3.7e+09 L/mol
